Measurements: ChEMBL document CHEMBL3124875, “A facile access to novel steroidal 17-2'-(1',3',4')-oxadiazoles, and an evaluation of their cytotoxic activities in vitro” (Bioorg Med Chem Lett, 2014)

Legend:
[1] = test system: HeLa; test: Cytotoxicity against human HeLa cells at 30 uM after 72 hrs by MTT assay; assay type: functional
[2] = test system: HeLa; test: Cytotoxicity against human HeLa cells after 72 hrs by MTT assay; assay type: functional, cell-based
[3] = test system: A2780; test: Cytotoxicity against human A2780 cells after 72 hrs by MTT assay; assay type: functional, cell-based; conditions: A2780, 72 h
[4] = test system: HeLa; test: Cytotoxicity against human HeLa cells at 10 uM after 72 hrs by MTT assay; assay type: functional
[5] = test system: MCF7; test: Cytotoxicity against human MCF7 cells at 30 uM after 72 hrs by MTT assay; assay type: functional; conditions: MCF7, 72 h
[6] = test system: MCF7; test: Cytotoxicity against human MCF7 cells at 10 uM after 72 hrs by MTT assay; assay type: functional; conditions: MCF7, 72 h
[7] = test system: A2780; test: Cytotoxicity against human A2780 cells at 10 uM after 72 hrs by MTT assay; assay type: functional; conditions: A2780, 72 h
[8] = test system: A2780; test: Cytotoxicity against human A2780 cells at 30 uM after 72 hrs by MTT assay; assay type: functional; conditions: A2780, 72 h
[9] = test system: A-431; test: Cytotoxicity against human A431 cells at 10 uM after 72 hrs by MTT assay; assay type: functional; conditions: A-431, 72 h
[10] = test system: A-431; test: Cytotoxicity against human A431 cells at 30 uM after 72 hrs by MTT assay; assay type: functional; conditions: A-431, 72 h
[11] = test system: MCF7; test: Cytotoxicity against human MCF7 cells after 72 hrs by MTT assay; assay type: functional, cell-based; conditions: MCF7, 72 h
[12] = test system: A-431; test: Cytotoxicity against human A431 cells after 72 hrs by MTT assay; assay type: functional, cell-based; conditions: A-431, 72 h

CC(=O)O[C@H]1CC[C@@]2(C)C(=CC[C@H]3[C@@H]4CC[C@H](/C=N/NC(=O)c5ccccc5)[C@@]4(C)CC[C@@H]32)C1
inhibition at 30 µM [1]: 90.2% | IC50 [2]: 5.04 µM | IC50 [3]: 11.4 µM | inhibition at 10 µM [4]: 71.2% | inhibition at 30 µM [5]: 44.4% | inhibition at 10 µM [6]: < 20% | inhibition at 10 µM [7]: 44.3% | inhibition at 30 µM [8]: 89.2% | inhibition at 10 µM [9]: 45.1% | inhibition at 30 µM [10]: 45.5%

CC(=O)O[C@H]1CC[C@@]2(C)C(=CC[C@H]3[C@@H]4CC[C@H](/C=N/NC(=O)c5cccnc5)[C@@]4(C)CC[C@@H]32)C1
inhibition at 30 µM [1]: 88% | IC50 [2]: 6.44 µM | IC50 [3]: 16.5 µM | inhibition at 10 µM [4]: 65.8% | inhibition at 30 µM [5]: 28.7% | inhibition at 10 µM [6]: < 20% | inhibition at 10 µM [7]: 27.8% | inhibition at 30 µM [8]: 84.3% | inhibition at 10 µM [9]: 37.1% | inhibition at 30 µM [10]: 37%

CC(=O)O[C@H]1CC[C@@]2(C)C(=CC[C@H]3[C@@H]4CC[C@H]([C@H]5OC(c6ccccc6)=NN5C(C)=O)[C@@]4(C)CC[C@@H]32)C1
inhibition at 30 µM [1]: 71.3% | IC50 [2]: 21.5 µM | IC50 [3]: 27.3 µM | inhibition at 10 µM [4]: < 20% | inhibition at 30 µM [5]: 26.7% | inhibition at 10 µM [6]: < 20% | inhibition at 10 µM [7]: 20.2% | inhibition at 30 µM [8]: 53.5% | inhibition at 10 µM [9]: 22.7% | inhibition at 30 µM [10]: 41.7%

CC(=O)O[C@H]1CC[C@@]2(C)C(=CC[C@H]3[C@@H]4CC[C@H](/C=N/NC(=O)c5ccco5)[C@@]4(C)CC[C@@H]32)C1
inhibition at 30 µM [1]: 91.2% | IC50 [2]: 6.95 µM | IC50 [3]: 11.3 µM | inhibition at 10 µM [4]: 77.8% | inhibition at 30 µM [5]: 55.1% | inhibition at 10 µM [6]: 26.7% | inhibition at 10 µM [7]: 26.2% | inhibition at 30 µM [8]: 70.5% | IC50 [11]: 11.9 µM | inhibition at 10 µM [9]: 39% | inhibition at 30 µM [10]: 40.4%

CC(=O)O[C@H]1CC[C@@]2(C)C(=CC[C@H]3[C@@H]4CC[C@H](c5nnc(-c6ccco6)o5)[C@@]4(C)CC[C@@H]32)C1
inhibition at 30 µM [1]: 48.2% | inhibition at 10 µM [4]: 27.5% | inhibition at 30 µM [5]: 45.3% | inhibition at 10 µM [6]: 26.1% | inhibition at 10 µM [7]: 24.1% | inhibition at 30 µM [8]: 43.5% | inhibition at 10 µM [9]: < 20% | inhibition at 30 µM [10]: 25.9%

CC(=O)O[C@H]1CC[C@@]2(C)C(=CC[C@H]3[C@@H]4CC[C@H](c5nnc(-c6ccccc6)o5)[C@@]4(C)CC[C@@H]32)C1
inhibition at 30 µM [1]: 57.4% | IC50 [2]: 29.4 µM | IC50 [3]: 28.8 µM | inhibition at 10 µM [4]: < 20% | inhibition at 30 µM [5]: 41.5% | inhibition at 10 µM [6]: 22.6% | inhibition at 10 µM [7]: < 20% | inhibition at 30 µM [8]: 52% | inhibition at 10 µM [9]: < 20% | IC50 [12]: 25.4 µM | inhibition at 30 µM [10]: 59.1%

C[C@]12CC[C@H]3[C@@H](CC=C4C[C@@H](O)CC[C@@]43C)[C@@H]1CC[C@@H]2c1nnc(-c2ccccc2)o1
inhibition at 30 µM [1]: 80.7% | IC50 [2]: 1.69 µM | inhibition at 10 µM [4]: 77.4% | inhibition at 30 µM [5]: 35.3% | inhibition at 10 µM [6]: 31.6% | inhibition at 10 µM [7]: 29.2% | inhibition at 30 µM [8]: 38.7% | inhibition at 10 µM [9]: 68% | IC50 [12]: 1.91 µM | inhibition at 30 µM [10]: 69.9%

C[C@]12CC[C@H]3[C@@H](CC=C4C[C@@H](O)CC[C@@]43C)[C@@H]1CC[C@@H]2/C=N/NC(=O)c1ccccc1
inhibition at 30 µM [1]: 90.4% | IC50 [2]: 4.68 µM | IC50 [3]: 20.3 µM | inhibition at 10 µM [4]: 72.2% | inhibition at 30 µM [5]: 48% | inhibition at 10 µM [6]: < 20% | inhibition at 10 µM [7]: 32.6% | inhibition at 30 µM [8]: 60.9% | inhibition at 10 µM [9]: < 20% | inhibition at 30 µM [10]: 38.1%

C[C@]12CC[C@H]3[C@@H](CC=C4C[C@@H](O)CC[C@@]43C)[C@@H]1CC[C@@H]2/C=N/NC(=O)c1cccnc1
inhibition at 30 µM [1]: 90.9% | IC50 [2]: 5.54 µM | IC50 [3]: 11.3 µM | inhibition at 10 µM [4]: 80.5% | inhibition at 30 µM [5]: 82.9% | inhibition at 10 µM [6]: < 20% | inhibition at 10 µM [7]: 23.5% | inhibition at 30 µM [8]: 66.4% | IC50 [11]: 18.9 µM | inhibition at 10 µM [9]: 40.1% | IC50 [12]: 12.8 µM | inhibition at 30 µM [10]: 71.8%

CC(=O)O[C@H]1CC[C@@]2(C)C(=CC[C@H]3[C@@H]4CC[C@H](c5nnc(-c6cccnc6)o5)[C@@]4(C)CC[C@@H]32)C1
inhibition at 30 µM [1]: 65.8% | IC50 [2]: 20.8 µM | inhibition at 10 µM [4]: 22.5% | inhibition at 30 µM [5]: 55.7% | inhibition at 10 µM [6]: 21.8% | inhibition at 10 µM [7]: 22.8% | inhibition at 30 µM [8]: 48.2% | IC50 [11]: 26.1 µM | inhibition at 10 µM [9]: < 20% | IC50 [12]: 23.6 µM | inhibition at 30 µM [10]: 60.8%

CC(=O)O[C@H]1CC[C@@]2(C)C(=CC[C@H]3[C@@H]4CC[C@H]([C@@H]5OC(c6ccccc6)=NN5C(C)=O)[C@@]4(C)CC[C@@H]32)C1
inhibition at 30 µM [1]: 23% | inhibition at 10 µM [4]: < 20% | inhibition at 30 µM [5]: < 20% | inhibition at 10 µM [6]: < 20% | inhibition at 10 µM [7]: < 20% | inhibition at 30 µM [8]: 40.3% | inhibition at 10 µM [9]: < 20% | inhibition at 30 µM [10]: 30.6%

C[C@]12CC[C@H]3[C@@H](CC=C4C[C@@H](O)CC[C@@]43C)[C@@H]1CC[C@@H]2c1nnc(-c2ccco2)o1
inhibition at 30 µM [1]: 77.5% | IC50 [2]: 1.56 µM | inhibition at 10 µM [4]: 74.9% | inhibition at 30 µM [5]: 46.6% | inhibition at 10 µM [6]: 42% | inhibition at 10 µM [7]: 37.5% | inhibition at 30 µM [8]: 37% | inhibition at 10 µM [9]: 66.6% | IC50 [12]: 1.82 µM | inhibition at 30 µM [10]: 69.2%

C[C@]12CC[C@H]3[C@@H](CC=C4C[C@@H](O)CC[C@@]43C)[C@@H]1CC[C@@H]2c1nnc(-c2cccnc2)o1
inhibition at 30 µM [1]: 74.2% | IC50 [2]: 4.83 µM | inhibition at 10 µM [4]: 71.7% | inhibition at 30 µM [5]: 45.5% | inhibition at 10 µM [6]: 41.6% | inhibition at 10 µM [7]: 31.9% | inhibition at 30 µM [8]: 33.3% | inhibition at 10 µM [9]: 60.3% | IC50 [12]: 6.76 µM | inhibition at 30 µM [10]: 65.4%

C[C@]12CC[C@H]3[C@@H](CC=C4C[C@@H](O)CC[C@@]43C)[C@@H]1CC[C@@H]2/C=N/NC(=O)c1ccco1
inhibition at 30 µM [1]: 91.2% | IC50 [2]: 5.57 µM | inhibition at 10 µM [4]: 78% | inhibition at 30 µM [5]: 53.2% | inhibition at 10 µM [6]: 21.1% | inhibition at 10 µM [7]: 21.1% | inhibition at 30 µM [8]: 46.4% | IC50 [11]: 28.2 µM | inhibition at 10 µM [9]: 24.9% | inhibition at 30 µM [10]: 26.1%
